Experimental data from US10000476B2, “Pyridone derivative, pharmaceutical containing the same and methods of use thereof” (KAKEN PHARMACEUTICAL CO., LTD., priority 2011, dated 2018).

Target: TACE (Homo sapiens (Human), UniProt P78536)
Experiment: TACE inhibition test (in vitro)
Format: biochemical
Conditions: fluorescent synthetic substrate, 37° C., 1.5 hours
Method: The nucleotide sequence of TACE has been reported by Moss et al. (Moss, M. L. et al., Nature 1997, 385, 733-736). Accordingly, the cDNA of TACE was obtained according to the prescribed method from THP-1 cells or the like, and then incorporated the cDNA into an expression vector. Next, this vector was transformed into mammalian cells or insect cells, and TACE expression was obtained.
The TACE inhibition test was carried out by measuring TACE activity in the presence and the absence of the test substance using the thus-obtained TACE as an enzyme, and a fluorescent synthetic substrate Nma(N-methylanthranilic acid)-Leu-Ala-Gln-Ala-Val-Arg-Ser-Ser-Lys(Dnp(dinitrophenyl))-D-Arg-NH2 (SEQ ID NO: 1) including the TACE-cleaved sequence of a membrane-bound TNF as a substrate. The TACE inhibition test method is shown below.
Namely, 90 μL of an enzyme solution prepared with an assay buffer A (50 mM tris-hydrochloric acid buffer (pH 7.5) including 200 mM sodium chloride, 5 mM calcium chloride, 10 μM zinc sulfate, and 2 mg/mL bovine serum albumin) and 90 μL of a fluorescent synthetic substrate prepared with an assay buffer B (50 mM tris-hydrochloric acid buffer (pH 7.5) including 200 mM sodium chloride, 5 mM calcium chloride, 10 μM zinc sulfate, and 0.05% PLURONIC F-68) were mixed together, and reacted at 37° C. for 1.5 hours. Enzyme activity was then determined by measuring with a fluorescence intensity meter (Labsystems, Fluoroskan Ascent) at an excitation wavelength of 355 nm and a measurement wavelength of 460 nm.
From the enzyme activity in the presence or the absence of the test substance, the inhibition rate was determined, and the 50% inhibitiory concentration (IC50) of the test substance was calculated.

Sequence of TACE (P78536 215-824): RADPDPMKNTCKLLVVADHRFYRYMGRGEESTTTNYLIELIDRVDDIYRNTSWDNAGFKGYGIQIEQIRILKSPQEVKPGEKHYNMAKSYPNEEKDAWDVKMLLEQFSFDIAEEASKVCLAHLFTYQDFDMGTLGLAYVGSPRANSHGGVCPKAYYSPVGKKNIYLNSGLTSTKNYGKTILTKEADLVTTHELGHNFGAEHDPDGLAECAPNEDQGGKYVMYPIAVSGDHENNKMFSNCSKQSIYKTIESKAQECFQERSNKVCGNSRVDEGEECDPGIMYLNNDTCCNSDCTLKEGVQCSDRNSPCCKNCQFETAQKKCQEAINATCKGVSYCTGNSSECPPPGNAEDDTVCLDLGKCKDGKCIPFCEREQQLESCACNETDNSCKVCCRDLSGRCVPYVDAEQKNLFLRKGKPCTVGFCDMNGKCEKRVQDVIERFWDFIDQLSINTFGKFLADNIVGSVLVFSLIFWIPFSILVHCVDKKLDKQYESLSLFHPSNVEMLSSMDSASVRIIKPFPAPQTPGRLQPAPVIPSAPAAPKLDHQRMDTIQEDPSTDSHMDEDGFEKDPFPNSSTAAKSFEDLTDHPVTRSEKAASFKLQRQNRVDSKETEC

Row | SMILES | IC50 [µM]
1 | COc1ccccc1-c1ccc(C2(Cn3cccc(C)c3=O)NC(=O)NC2=O)cc1 (centres unmarked) [Compound I-74] | < 0.1
2 | Cc1cccn(CC2(c3ccc(-c4ccc(F)cc4)cc3)NC(=O)NC2=O)c1=O (centres unmarked) [Compound I-75] | < 0.1
3 | COc1ccc(C)cc1C1(Cn2cccc(C)c2=O)NC(=O)NC1=O (centres unmarked) [Compound I-76] | 0.1 to 1
4 | Cc1cccn(CC2(c3ccc4c(c3)CCCC4)NC(=O)NC2=O)c1=O (centres unmarked) [Compound I-77] | < 0.1
5 | Cc1cccn(CC2(c3ccc(OC(F)F)cc3)NC(=O)NC2=O)c1=O (centres unmarked) [Compound I-78] | < 0.1
6 | Cc1cccn(CC2(c3ccc(OC(F)(F)F)cc3)NC(=O)NC2=O)c1=O (centres unmarked) [Compound I-79] | < 0.1
7 | Cc1cccc(Oc2ccc(C3(Cn4cccc(C)c4=O)NC(=O)NC3=O)cc2)c1 (centres unmarked) [Compound I-80] | < 0.1
8 | COc1ccc(Oc2ccc(C3(Cn4cccc(C)c4=O)NC(=O)NC3=O)cc2)cc1 (centres unmarked) [Compound I-81] | < 0.1
9 | Cc1cccn(CC2(c3ccc(Oc4ccc(Cl)cc4)cc3)NC(=O)NC2=O)c1=O (centres unmarked) [Compound I-82] | < 0.1
10 | COc1cccc(Oc2ccc(C3(Cn4cccc(C)c4=O)NC(=O)NC3=O)cc2)c1 (centres unmarked) [Compound I-83] | < 0.1
11 | Cc1cccn(CC2(c3ccc(Oc4ccccc4)c(F)c3)NC(=O)NC2=O)c1=O (centres unmarked) [Compound I-87] | < 0.1
12 | Cc1cccn(CC2(c3ccc(OCc4ccc(F)cc4)cc3)NC(=O)NC2=O)c1=O (centres unmarked) [Compound I-88] | < 0.1
13 | Cc1cccn(CC2(c3ccc(C(F)(F)F)cc3)NC(=O)NC2=O)c1=O (centres unmarked) [Compound I-89] | < 0.1
14 | Cc1noc(C)c1-c1ccc(C2(Cn3cccc(C)c3=O)NC(=O)NC2=O)cc1 (centres unmarked) [Compound I-90] | < 0.1
15 | COc1ccncc1-c1ccc(C2(Cn3cccc(C)c3=O)NC(=O)NC2=O)cc1 (centres unmarked) [Compound I-91] | < 0.1
16 | Cc1cccn(CC2(c3ccc(-c4ccccn4)cc3)NC(=O)NC2=O)c1=O (centres unmarked) [Compound I-92] | < 0.1
17 | Cc1cccn(CC2(c3cccc(-c4ccc(F)cn4)c3)NC(=O)NC2=O)c1=O (centres unmarked) [Compound I-93] | < 0.1
18 | Cc1cccn(CC2(c3cccc(-c4ccccn4)c3)NC(=O)NC2=O)c1=O (centres unmarked) [Compound I-94] | < 0.1
19 | Cc1cccn(CC2(c3cccc(-c4ccncc4)c3)NC(=O)NC2=O)c1=O (centres unmarked) [Compound I-95] | < 0.1
20 | Cc1cccn(CC2(c3cccc(-c4ccccc4)c3)NC(=O)NC2=O)c1=O (centres unmarked) [Compound I-96] | < 0.1
21 | Cc1cccn(CC2(c3ccc(Oc4ccc(F)cc4F)cc3)NC(=O)NC2=O)c1=O (centres unmarked) [Compound I-97] | < 0.1
22 | Cc1cccn(CC2(c3ccc(Oc4ccc(F)c(F)c4)cc3)NC(=O)NC2=O)c1=O (centres unmarked) [Compound I-98] | < 0.1
23 | Cc1cccn(CC2(c3ccc(Oc4cc(F)cc(F)c4)cc3)NC(=O)NC2=O)c1=O (centres unmarked) [Compound I-99] | < 0.1
24 | Cc1cccn(CC2(c3ccc(Oc4cccc(C(F)(F)F)c4)cc3)NC(=O)NC2=O)c1=O (centres unmarked) [Compound I-100] | < 0.1
25 | Cc1cccn(CC2(c3ccc(Oc4cccnc4)cc3)NC(=O)NC2=O)c1=O (centres unmarked) [Compound I-101] | < 0.1

Row | SMILES | IC50 [µM]
26 | Cc1cccn(CC2(c3ccc(Sc4ccccc4)c(F)c3)NC(=O)NC2=O)c1=O (centres unmarked) [Compound I-103] | < 0.1
27 | Cc1cccn(CC2(c3ccc(Oc4ccccc4F)c(F)c3)NC(=O)NC2=O)c1=O (centres unmarked) [Compound I-104] | < 0.1
28 | Cc1cccn(CC2(c3ccc4c(c3)OCCCO4)NC(=O)NC2=O)c1=O (centres unmarked) [Compound I-105] | < 0.1
29 | Cc1cccn(CC2(c3ccc(C#Cc4ccccc4)cc3)NC(=O)NC2=O)c1=O (centres unmarked) [Compound I-106] | < 0.1
30 | Cc1cccn(CC2(c3ccc(CCc4ccccc4)cc3)NC(=O)NC2=O)c1=O (centres unmarked) [Compound I-107] | < 0.1
31 | C=C(C)c1ccc(C2(Cn3cccc(C)c3=O)NC(=O)NC2=O)cc1 (centres unmarked) [Compound I-108] | < 0.1
32 | Cc1cccn(CC2(c3ccc(/C=C/C4CCCCC4)cc3)NC(=O)NC2=O)c1=O (centres unmarked) [Compound I-109] | 0.1 to 1
33 | Cc1cccn(CC2(c3ccc(C#Cc4ccccn4)cc3)NC(=O)NC2=O)c1=O (centres unmarked) [Compound I-110] | < 0.1
34 | Cc1cccn(CC2(c3ccc(Oc4ccc(F)cc4)c(F)c3)NC(=O)NC2=O)c1=O (centres unmarked) [Compound I-111] | < 0.1
35 | Cc1cccn(CC2(c3ccc(Oc4cccc(F)c4)c(F)c3)NC(=O)NC2=O)c1=O (centres unmarked) [Compound I-112] | < 0.1
36 | COc1ccccc1Oc1ccc(C2(Cn3cccc(C)c3=O)NC(=O)NC2=O)cc1 (centres unmarked) [Compound I-113] | < 0.1
37 | COc1ccccc1Oc1ccc(C2(Cn3cccc(C)c3=O)NC(=O)NC2=O)cc1F (centres unmarked) [Compound I-114] | < 0.1
38 | Cc1cccn(CC2(c3ccc(CCc4ccccn4)cc3)NC(=O)NC2=O)c1=O (centres unmarked) [Compound I-115] | < 0.1
39 | CCc1ccc(C2(Cn3cccc(C)c3=O)NC(=O)NC2=O)cc1 (centres unmarked) [Compound I-116] | < 0.1
40 | Cc1cccn(CC2(c3ccc(C(C)C)cc3)NC(=O)NC2=O)c1=O (centres unmarked) [Compound I-117] | < 0.1
41 | Cc1cccn(CC2(c3ccc(CCC4CCCCC4)cc3)NC(=O)NC2=O)c1=O (centres unmarked) [Compound I-118] | 0.1 to 1
42 | CCOc1ccc(C2(Cn3cccc(C)c3=O)NC(=O)NC2=O)cc1 (centres unmarked) [Compound I-119] | < 0.1
43 | Cc1cccn(CC2(c3ccc(OC(C)C)cc3)NC(=O)NC2=O)c1=O (centres unmarked) [Compound I-120] | < 0.1
44 | Cc1cccn(CC2(c3ccc(CC(C)C)cc3)NC(=O)NC2=O)c1=O (centres unmarked) [Compound I-121] | < 0.1
45 | Cc1cccn(CC2(c3ccc(Oc4cccnc4)c(F)c3)NC(=O)NC2=O)c1=O (centres unmarked) [Compound I-122] | < 0.1
46 | Cc1cccn(CC2(c3ccc(Oc4ccccc4)c(Cl)c3)NC(=O)NC2=O)c1=O (centres unmarked) [Compound I-123] | < 0.1
47 | Cc1cccn(CC2(c3ccc(OC4CCCC4)cc3)NC(=O)NC2=O)c1=O (centres unmarked) [Compound I-124] | < 0.1
48 | Cc1cccn(CC2(c3ccc(Cl)c(Cl)c3)NC(=O)NC2=O)c1=O (centres unmarked) [Compound I-125] | < 0.1
49 | Cc1cccn(CC2(c3ccc(F)c(Cl)c3)NC(=O)NC2=O)c1=O (centres unmarked) [Compound I-126] | < 0.1
50 | COc1cc(C2(Cn3cccc(C)c3=O)NC(=O)NC2=O)cc(F)c1F (centres unmarked) [Compound I-127] | < 0.1

Row | SMILES | IC50 [µM]
51 | Cc1ccc(C2(Cn3cccc(C)c3=O)NC(=O)NC2=O)c(F)c1F (centres unmarked) [Compound I-128] | < 0.1
52 | Cc1cc(C2(Cn3cccc(C)c3=O)NC(=O)NC2=O)ccc1OC1CCCCC1 (centres unmarked) [Compound I-131] | < 0.1
53 | O=C1NC(=O)C(Cn2cccc(F)c2=O)(c2ccccc2)N1 (centres unmarked) [Compound I-132] | < 0.1
54 | COc1ccc(C2(Cn3cccc(F)c3=O)NC(=O)NC2=O)cc1 (centres unmarked) [Compound I-133] | < 0.1
55 | N#Cc1ccc(C2(Cn3cccc(F)c3=O)NC(=O)NC2=O)cc1 (centres unmarked) [Compound I-134] | < 0.1
56 | O=C1NC(=O)C(Cn2cccc(F)c2=O)(c2ccc3ccccc3c2)N1 (centres unmarked) [Compound I-135] | < 0.1
57 | O=C1NC(=O)C(Cn2cccc(Cl)c2=O)(c2ccc(F)cc2)N1 (centres unmarked) [Compound I-136] | < 0.1
58 | COc1ccc(C2(Cn3cccc(Cl)c3=O)NC(=O)NC2=O)cc1 (centres unmarked) [Compound I-137] | < 0.1
59 | N#Cc1ccc(C2(Cn3cccc(Cl)c3=O)NC(=O)NC2=O)cc1 (centres unmarked) [Compound I-138] | < 0.1
60 | O=C1NC(=O)C(Cn2cccc(Br)c2=O)(c2ccccc2)N1 (centres unmarked) [Compound I-139] | < 0.1
61 | O=C1NC(=O)C(Cn2cccc(C(F)(F)F)c2=O)(c2ccccc2)N1 (centres unmarked) [Compound I-140] | < 0.1
62 | COc1ccc(C2(Cn3cccc(C(F)(F)F)c3=O)NC(=O)NC2=O)cc1 (centres unmarked) [Compound I-141] | < 0.1
63 | N#Cc1ccc(C2(Cn3cccc(C(F)(F)F)c3=O)NC(=O)NC2=O)cc1 (centres unmarked) [Compound I-142] | < 0.1
64 | COc1cccn(CC2(c3ccccc3)NC(=O)NC2=O)c1=O (centres unmarked) [Compound I-143] | 0.1 to 1
65 | C=C(C)c1cccn(CC2(c3ccc(OC)cc3)NC(=O)NC2=O)c1=O (centres unmarked) [Compound I-144] | 0.1 to 1
66 | O=C1NC(=O)C(Cn2cccc(F)c2=O)(c2ccc(F)c(F)c2)N1 (centres unmarked) [Compound I-145] | < 0.1
67 | O=C1NC(=O)C(Cn2cccc(Cl)c2=O)(c2ccc(F)c(F)c2)N1 (centres unmarked) [Compound I-146] | < 0.1
68 | O=C1NC(=O)C(Cn2cccc(Br)c2=O)(c2ccc(F)c(F)c2)N1 (centres unmarked) [Compound I-147] | < 0.1
69 | O=C1NC(=O)C(Cn2cccc(CO)c2=O)(c2ccc(F)c(F)c2)N1 (centres unmarked) [Compound I-148] | 0.1 to 1
70 | O=C1NC(=O)C(Cn2cccc(Br)c2=O)(c2ccc(Cc3ccccc3)cc2)N1 (centres unmarked) [Compound I-149] | < 0.1
71 | O=C1NC(=O)C(Cn2cccc(Cl)c2=O)(c2ccc(Cc3ccccc3)cc2)N1 (centres unmarked) [Compound I-150] | < 0.1
72 | O=C1NC(=O)C(Cn2cccc(CO)c2=O)(c2ccc(Cc3ccccc3)cc2)N1 (centres unmarked) [Compound I-151] | 0.1 to 1
73 | O=C1NC(=O)C(Cn2cccc(F)c2=O)(c2ccc(Cc3ccccc3)cc2)N1 (centres unmarked) [Compound I-152] | < 0.1
74 | Cc1cccn(CC2(c3cccc(F)c3F)NC(=O)NC2=O)c1=O (centres unmarked) [Compound I-153] | < 0.1
